Assays:
Assay type in all cases: cell-based
Design in all cases: key: —: No effect (i.e. no significant difference between control [culture with no peptide] and culture with peptide); *: ~1 log effect (i.e. culture with peptide that's growth was ~1 log less than control); **: 1-2 log effect; ***: 2-4 log effect; ****: >4 log effect; “”: “Immediate effect” (i.e. loss of growth by at least 1 log compared to control immediately on addition of peptide [T = 0]
F. tularensis LVS = system: F. tularensis LVS
[1] = system: Y. pseudotuberculosis IP32593
F. novicida U112 = system: F. novicida U112
S. aureus ATCC29213 = settings: peptide 102 μg/mL, reduction of number of bacteria vs control
B. thailandensis E264 = system: B. thailandensis E264
B. cepacia J2540 = system: B. cepacia J2540
[2] = system: Y. pseudotuberculosis YPIII
[3] = system: B. anthracis Vegetative UM23-Cl2

| Sequence | Effect of peptides after 4 hours incubation with bacteria, F. tularensis LVS (F. tularensis LVS) | Effect of peptides after 4 hours incubation with bacteria, Y. pseudotuberculosis IP32593 [1] | Effect of peptides after 4 hours incubation with bacteria, F. novicida U112 (F. novicida U112) | Effect of peptides after 4 hours incubation with bacteria, S. aureus ATCC29213 (S. aureus ATCC29213) | Effect of peptides after 4 hours incubation with bacteria, B. thailandensis E264 (B. thailandensis E264) | Effect of peptides after 4 hours incubation with bacteria, B. cepacia J2540 (B. cepacia J2540) | Effect of peptides after 4 hours incubation with bacteria, Y. pseudotuberculosis YPIII [2] | Effect of peptides after 4 hours incubation with bacteria, B. anthracis Vegetative UM23-Cl2 [3] |
| --- | --- | --- | --- | --- | --- | --- | --- | --- |
| GIGKFLHSAKKFGKAFVGEIMNS [Magainin II] | — | — | — | **** (>4 log effect) | — |  |  |  |
| LLGDFFRKSKEKIGKEFKRIVQRIKDFLRNLVPRTES [LL-37] | — | — | — | — | — | — | — | — |

Source: patent publication US20110288007A1 (priority 2008, published 2011)
